Molecular target: T1, human S1P1 receptor (Homo sapiens, UniProt P21453)
T1 construct: expressed in transfected cells; membranes used
Assay: GTP γ35S binding assay for S1P1 activity
Assay type: biochemical
Conditions: membranes of cells stably expressing the S1P1 receptor, test concentrations 0.08 to 5,000 nM
Procedure: Compounds of the invention were tested for S1P1 activity using the GTP γ^35S binding assay. These compounds may be assessed for their ability to activate or block activation of the human S1P1 receptor in cells stably expressing the S1P1 receptor.
GTP γ^355 binding was measured in the medium containing (mM) HEPES 25, pH 7.4, MgCl2 10, NaCl 100, dithiothreitol 0.5, digitonin 0.003%, 0.2 nM GTP γ^355, and 5 μg membrane protein in a volume of 150 μl. Test compounds were included in the concentration range from 0.08 to 5,000 nM unless indicated otherwise. Membranes were incubated with 100 μM 5′adenylylimidodiphosphate for 30 min, and subsequently with 10 μM GDP for 10 min on ice. Drug solutions and membrane were mixed, and then reactions were initiated by adding GTP γ^355 and continued for 30 min at 25° C. Reaction mixtures were filtered over Whatman GF/B filters under vacuum, and washed three times with 3 mL of ice-cold buffer (HEPES 25, pH 7.4, MgCl2 10 and NaCl 100). Filters were dried and mixed with scintillant, and counted for ^35S activity using a β-counter. Agonist-induced GTP γ^35S binding was obtained by subtracting that in the absence of agonist. Binding data were analyzed using a non-linear regression method. In case of antagonist assay, the reaction mixture contained 10 nM S1P in the presence of test antagonist at concentrations ranging from 0.08 to 5000 nM.

T1 sequence (P21453 whole entry): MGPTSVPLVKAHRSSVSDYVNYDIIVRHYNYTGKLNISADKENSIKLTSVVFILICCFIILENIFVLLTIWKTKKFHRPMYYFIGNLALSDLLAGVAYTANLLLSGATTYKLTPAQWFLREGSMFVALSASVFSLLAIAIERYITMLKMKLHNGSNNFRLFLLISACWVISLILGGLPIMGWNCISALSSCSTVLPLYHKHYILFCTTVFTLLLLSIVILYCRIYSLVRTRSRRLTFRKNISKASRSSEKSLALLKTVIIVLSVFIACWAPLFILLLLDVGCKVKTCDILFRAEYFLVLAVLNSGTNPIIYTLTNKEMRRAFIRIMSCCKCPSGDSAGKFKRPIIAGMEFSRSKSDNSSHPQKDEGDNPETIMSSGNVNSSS

`CCCN1N=C(COc2ccc(CNCCCP(=O)(O)O)cc2C)CC1c1ccccc1` (stereo not shown) [Compound 1, [3-({3-Methyl-4-[(5-phenyl-1-propyl-4,5-dihydro-1H-pyrazol-3-yl)methoxy]benzyl}amino)propyl]phosphonic acid] showed an EC50 of 57 nM.

From patent publication US8987471B2, “Substituted dihydropyrazoles as sphingosine receptor modulators” (Allergan, Inc., priority 2013, dated 2015)
